≈ marks a conversion by molar mass, not a printed value. Counter-ions that a name gives are not always drawn. Like-named read-outs stand apart in the source and are kept apart here.
Assays:
[1] = test system: Staphylococcus aureus A 2001; assay: in vivo infection test in mice; conditions: A2001, in Mus musculus
[2] = test system: Bacillus subtilis ATCC 6633; assay: MIC, agar serial dilution test; format: cell-based
[3] = test system: Staphylococcus aureus A 321; assay: in vivo infection test in mice; conditions: A321, in Mus musculus
Escherichia coli 65161 = assay: protection test in mice, Escherichia coli; format: in vivo, female mice (Swiss SPF); conditions: for ED50: ip, 168 h, Escherichia coli 65161 i.p., method of administration intraperitoneal
[4] = test system: Salmonella typhi murium R 172; assay: in vivo infection test in mice; conditions: Salmonella enterica, in Mus musculus
[5] = test system: Klebsiella pneumoniae A809; assay: MIC, agar serial dilution test; format: cell-based
[6] = test system: Streptococcus faecalis L 80; assay: MIC, agar serial dilution test; format: cell-based; conditions: Enterococcus faecalis
[7] = secretion of compound in urine after intramuscular administration in rabbits; format: in vivo, rabbits (Nieuw Zeelander); conditions: rabbit, im, 50 mg/kg intramuscular, average, read-out: Secretion of compound in urine in % of the administered dose; for dose excreted at 6 h: after 6 hrs.; for dose excreted at 27 h: after 27 hrs.
Protocol: (§1) c. […] The rabbits were provided with "Cunicon" and water ad libitum. Each test group consisted of 3 rabbits. The dose was 50 mg/kg using water as the vehicle. […] The contents of the compound in the samples were determined microbiologically (only microbiologically detected amounts, i.e. anti-bacterially active concentrations only have been indicated).

Proteus mirabilis O.T. = assay: in vivo infection test in mice; conditions: in Mus musculus
[8] = test system: Pseudomonas aeruginosa A 1058; assay: in vivo infection test in mice; conditions: A1058, in Mus musculus
in vivo = conditions: mouse, ip
[9] = test system: Staphylococcus aureus L160a (penicillinase-producing); assay: MIC, agar serial dilution test; conditions: 24 h
Brucella melitensis A488 = assay: microbe, parasite or virus in culture; format: cell-based; conditions: A488, 24 h
[10] = test system: Staphylococcus aureus A355 (penicillinase-producing); assay: MIC, agar serial dilution test; conditions: 24 h
[11] = percentages of bound serum by ultrafiltration and dialysis; format: in vitro ADME; conditions: read-out: percentage of bound serum (converted)
[12] = test system: Diplococcus pneumoniae L 54; assay: MIC, agar serial dilution test; format: cell-based; conditions: Streptococcus pneumoniae
[13] = test system: Staphylococcus aureus A321; assay: MIC, agar serial dilution test; format: cell-based
[14] = test system: Staphylococcus aureus A55; assay: MIC, agar serial dilution test; format: cell-based
[15] = test system: Pasteurella multocida A723; assay: MIC, agar serial dilution test; format: cell-based
[16] = test system: Staphylococcus aureus A 2000; assay: in vivo infection test in mice; conditions: A2000, in Mus musculus
[17] = blood (serum) contents after intramuscular administration in rabbits; format: in vivo, rabbits (Nieuw Zeelander); conditions: rabbit, im, 50 mg/kg intramuscular, average, read-out: Serum level; for concentration at 0.5 h: after 1/2 hr.; for concentration at 0.25 h: after 1/4 hr.; for concentration at 1 h: after 1 hr.; for concentration at 2 h: after 2 hrs.; for concentration at 4 h: after 4 hrs.
Protocol: as §1

[18] = test system: Streptococcus haemolyticus A266; assay: MIC, agar serial dilution test; format: cell-based
[19] = test system: Staphylococcus aureus A 2001; assay: protection test in mice, Staphylococcus aureus; conditions: for ED50: Staphylococcus aureus, A2001, in Mus musculus, sc, 168 h
[20] = ATCC6633, Bacillus subtilis ATCC 6633, 24 hours at 37° C, read-out: MIC
[21] = Klebsiella pneumoniae A809, 24 hours at 37° C, read-out: MIC
[22] = L80, Streptococcus faecalis L 80, 24 hours at 37° C, read-out: MIC
[23] = L54, Diplococcus pneumoniae L 54, 24 hours at 37° C, read-out: MIC
[24] = Staphylococcus aureus A321, 24 hours at 37° C, read-out: MIC
[25] = Staphylococcus aureus A55, 24 hours at 37° C, read-out: MIC
[26] = Pasteurella multocida A723, 24 hours at 37° C, read-out: MIC
[27] = Streptococcus haemolyticus A266, 24 hours at 37° C, read-out: MIC

## CC(=O)OCC1=C(C(=O)O)N2C(=O)[C@@H](NC(=O)Cc3cccs3)[C@H]2SC1 [Cephalotin, reference compound]
[1]; ip
  ED50: 27.1 mg/kg
[1]; po
  ED50: > 68.1 mg/kg
[2]; Bacillus subtilis, ATCC6633, 24 h
  MIC: 0.03 µg/mL (≈ 0.0757 µM)
[3]; ip
  ED50: 1.9 mg/kg
[3]; po
  ED50: 14.7 mg/kg
[3]; sc
  ED50: 16.2 mg/kg
Escherichia coli 65161
  ED50: 115 mg/kg
[4]; ip
  ED50: 79.4 mg/kg
[4]; sc
  ED50: ~200 mg/kg
[5]; Klebsiella pneumoniae, A809, 24 h
  MIC: 0.5 µg/mL (≈ 1.26 µM)
[6]; L80, 24 h
  MIC: 25 µg/mL (≈ 63.1 µM)
[7]
  dose excreted at 6 h: 22.2%
  dose excreted at 27 h: 26.9%
Proteus mirabilis O.T.; ip
  ED50: 79.4 mg/kg
Proteus mirabilis O.T.; sc
  ED50: 68.1 mg/kg
[8]; ip
  ED50: > 215 mg/kg
[8]; sc
  ED50: > 215 mg/kg
In vivo
  LD50: 6000 to 8000 mg/kg
[9]
  MIC: 1 µg/mL (≈ 2.52 µM)
Brucella melitensis A488
  MIC: 6 µg/mL (≈ 15.1 µM)
[10]
  MIC: 1 µg/mL (≈ 2.52 µM)
[11]; dialysis
  fraction unbound: ~0.3
[11]; ultrafiltration
  fraction unbound: ~0.3
[12]; L54, 24 h
  MIC: 0.25 µg/mL (≈ 0.631 µM)
[13]; Staphylococcus aureus, A321, 24 h
  MIC: 0.25 µg/mL (≈ 0.631 µM)
[14]; Staphylococcus aureus, A55, 24 h
  MIC: 0.25 µg/mL (≈ 0.631 µM)
[15]; Pasteurella multocida, A723, 24 h
  MIC: 0.25 µg/mL (≈ 0.631 µM)
[16]; ip
  ED50: 20 mg/kg
[16]; po
  ED50: 147 mg/kg
[16]; sc
  ED50: 110 mg/kg
[17]
  concentration at 0.5 h: 33900 ng/mL
  concentration at 0.25 h: 73800 ng/mL
  concentration at 1 h: 8500 ng/mL
  concentration at 2 h: < 1100 ng/mL
  concentration at 4 h: < 1000 ng/mL
[18]; Streptococcus, A266, 24 h
  MIC: 0.06 µg/mL (≈ 0.151 µM)
[19]
  ED50: 43 mg/kg

## CC1(C)SC2C(NC(=O)Cc3cc(-c4c(Cl)cccc4Cl)no3)C(=O)N2C1C(=O)O (stereo not shown) [Example I, Sodium salt of 6-{[3-(2,6-dichlorophenyl)isoxazol-5-yl]acetamido}-penicillanic acid]
[1]; ip
  ED50: > 215 mg/kg
[1]; po
  ED50: > 215 mg/kg
[1]; sc
  ED50: > 215 mg/kg
[2]; [20]
  MIC: 0.007 µg/mL
[3]; ip
  ED50: 10.8 mg/kg
[3]; po
  ED50: 126 mg/kg
[3]; sc
  ED50: 36.9 mg/kg
[4]; ip
  ED50: > 215 mg/kg
[5]; [21]
  MIC: 100 µg/mL
[6]; [22]
  MIC: 50 µg/mL
[8]; ip
  ED50: > 215 mg/kg
[9]
  MIC: 1 µg/mL
Brucella melitensis A488
  MIC: 0.5 µg/mL
[10]
  MIC: 3 µg/mL
[12]; [23]
  MIC: 0.25 µg/mL
[13]; [24]
  MIC: 0.015 µg/mL
[14]; [25]
  MIC: 0.01 µg/mL
[15]; [26]
  MIC: 2 µg/mL
[16]; ip
  ED50: 133 mg/kg
[16]; po
  ED50: > 215 mg/kg
[16]; sc
  ED50: > 215 mg/kg
[18]; [27]
  MIC: 0.007 µg/mL

## CC1=C(C(=O)O)N2C(=O)C(NC(=O)Cc3cc(-c4c(Cl)cccc4Cl)no3)C2SC1 (stereo not shown) [Example IV, Sodium salt of 7{[3-(2,6-dichlorophenyl)isoxazol-5-yl]acetamido}desacetoxycephalosporanicacid]
[1]; ip
  ED50: 23.3 mg/kg
[1]; po
  ED50: ~200 mg/kg
[1]; sc
  ED50: > 215 mg/kg
[2]; [20]
  MIC: 1 µg/mL
[3]; ip
  ED50: 23.3 mg/kg
[3]; po
  ED50: 50.1 mg/kg
[3]; sc
  ED50: 31.6 mg/kg
[4]; ip
  ED50: > 215 mg/kg
[5]; [21]
  MIC: > 100 µg/mL
[6]; L80, 24 h
  MIC: 12.5 µg/mL
Proteus mirabilis O.T.; ip
  ED50: > 215 mg/kg
[8]; ip
  ED50: > 215 mg/kg
[9]
  MIC: 1.5 µg/mL
Brucella melitensis A488
  MIC: 12.5 µg/mL
[10]
  MIC: 3 µg/mL
[12]; [23]
  MIC: 0.75 µg/mL
[13]; [24]
  MIC: 0.5 µg/mL
[14]; [25]
  MIC: 0.75 µg/mL
[15]; [26]
  MIC: 6 µg/mL
[16]; ip
  ED50: 19.6 mg/kg
[16]; po
  ED50: > 215 mg/kg
[16]; sc
  ED50: > 215 mg/kg
[18]; [27]
  MIC: 0.5 µg/mL

## CC(=O)OCC1=C(C(=O)O)N2C(=O)C(NC(=O)Cc3cc(C)no3)C2SC1 (stereo not shown) [Example XXII, 7-{[3-methyl-isoxazol-5-yl]acetamido}cephalosporanic acid]
[2]; [20]
  MIC: 0.06 µg/mL (≈ 0.152 µM)
Escherichia coli 65161
  ED50: 100 mg/kg
Escherichia coli 65161; vs Cephalotin, E. coli 65161, intraperitoneal, limits (0.52-2.53) printed
  Potency Ratio: 1.15
[5]; [21]
  MIC: 3 µg/mL (≈ 7.59 µM)
[6]; [22]
  MIC: 25 µg/mL (≈ 63.2 µM)
[7]
  dose excreted at 6 h: 41.4%
  dose excreted at 27 h: 46.9%
In vivo
  LD50: > 8000 mg/kg
[9]
  MIC: 1 µg/mL (≈ 2.53 µM)
Brucella melitensis A488
  MIC: 12.5 µg/mL (≈ 31.6 µM)
[10]
  MIC: 1 µg/mL (≈ 2.53 µM)
[11]; dialysis
  fraction unbound: 0.72
[11]; ultrafiltration
  fraction unbound: 0.67
[12]; [23]
  MIC: 0.5 µg/mL (≈ 1.26 µM)
[13]; [24]
  MIC: 0.5 µg/mL (≈ 1.26 µM)
[14]; [25]
  MIC: 0.5 µg/mL (≈ 1.26 µM)
[15]; [26]
  MIC: 3 µg/mL (≈ 7.59 µM)
[17]
  concentration at 0.5 h: 45000 ng/mL
  concentration at 0.25 h: 57500 ng/mL
  concentration at 1 h: 12300 ng/mL
  concentration at 2 h: 1700 ng/mL
  concentration at 4 h: < 1000 ng/mL
[18]; [27]
  MIC: 0.12 µg/mL (≈ 0.303 µM)
[19]
  ED50: 23 mg/kg
[19]; vs Cephalotin, S. aureus A 2001, subcutaneously, limits (0.73-4.92) printed
  Potency Ratio: 1.90

## CC(=O)OCC1=C(C(=O)O)N2C(=O)C(NC(=O)Cc3cc(-c4c(C)cc(C)cc4C)no3)C2SC1 (stereo not shown) [VII, Sodium salt of 7-{[3-(2,4,6-trimethyl)phenylisoxazol-5-yl]acetamido}cephalosporanic acid]
[1]; ip
  ED50: 17.1 mg/kg
[1]; po
  ED50: > 215 mg/kg
[1]; sc
  ED50: 140 mg/kg
[2]; [20]
  MIC: 0.015 µg/mL
[3]; ip
  ED50: 3.8 mg/kg
[3]; po
  ED50: 70 mg/kg
[3]; sc
  ED50: 18.5 mg/kg
[4]; ip
  ED50: > 215 mg/kg
[4]; po
  ED50: > 215 mg/kg
[5]; [21]
  MIC: 50 µg/mL
[6]; [22]
  MIC: 1 µg/mL
Proteus mirabilis O.T.; ip
  ED50: > 215 mg/kg
Proteus mirabilis O.T.; po
  ED50: ~215 mg/kg
[8]; ip
  ED50: > 215 mg/kg
[8]; po
  ED50: > 215 mg/kg
[9]
  MIC: 0.12 µg/mL
Brucella melitensis A488
  MIC: 12.5 µg/mL
[10]
  MIC: 0.25 µg/mL
[12]; [23]
  MIC: 0.03 µg/mL
[13]; [24]
  MIC: 0.06 µg/mL
[14]; [25]
  MIC: 0.06 µg/mL
[15]; [26]
  MIC: 50 µg/mL
[18]; [27]
  MIC: 0.03 µg/mL

Source: US4010264A, “7-[3-Substituted isoxazol-5-yl]-acetamido-cephalosporanic acids and their anti-bacterial use” (Koninklijke Nederlandsche Gist-en Spiritusfabriek N.V., priority 1970, dated 1977)
